Measurements taken from ChEMBL document CHEMBL1136170, “5-aryl thiazolidine-2,4-diones: discovery of PPAR dual alpha/gamma agonists as antidiabetic agents” (Bioorg Med Chem Lett, 2003).

How the values were obtained:
[1] = target: T1, Peroxisome proliferator-activated receptor delta (Homo sapiens, UniProt Q03181)
T1 sequence (Q03181 whole entry): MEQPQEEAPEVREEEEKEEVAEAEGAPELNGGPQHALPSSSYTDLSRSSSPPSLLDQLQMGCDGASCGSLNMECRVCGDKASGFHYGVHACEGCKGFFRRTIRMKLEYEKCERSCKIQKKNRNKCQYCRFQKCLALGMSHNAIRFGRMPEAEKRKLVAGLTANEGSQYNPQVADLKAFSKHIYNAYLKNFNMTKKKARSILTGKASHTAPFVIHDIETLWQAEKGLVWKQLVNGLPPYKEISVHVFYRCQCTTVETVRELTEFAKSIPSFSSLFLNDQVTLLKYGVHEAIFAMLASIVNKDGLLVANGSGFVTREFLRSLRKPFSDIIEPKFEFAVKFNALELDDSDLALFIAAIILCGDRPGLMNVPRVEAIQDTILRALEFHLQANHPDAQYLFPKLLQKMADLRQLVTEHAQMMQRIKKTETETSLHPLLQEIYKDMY
Description: In vitro transactivation of human Peroxisome proliferator activated receptor delta measured in PPAR-GAL4 chimeric COS-1 cells

[2] = target: T1, Peroxisome proliferator-activated receptor delta; remark: listed apart in the source
Description: In vitro binding affinity against human Peroxisome proliferator activated receptor delta

Mus musculus [3] = assay: In vivo efficacy as percent glucose correction in male db/db mice at 10 mg/kg oral dose; format: functional
Mus musculus [4] = assay: In vivo efficacy as percent triglyceride correction in male db/db mice at 10 mg/kg oral dose; format: functional
[5] = Half life was measured in fasted male administration of compound 0.5 mg/Kg i.v.; format: ADME, organism-based; settings: rat, in vivo, iv
[6] = Plasma clearance in fasted male Sprague dawely rats on administration of 0.5 mg/Kg i.v. of the compound; format: ADME, organism-based; settings: Sprague-Dawley, rat, iv, read-out: Clp
[7] = Oral bioavailability in rat (Sprague-Dawley) (fasted male) (dose 2 mg/kg); format: ADME, organism-based; settings: in vivo
Rattus norvegicus [8] = assay: Dose-normalized AUC measured in fasted male Sprague dawely rats when the compound was administered at a peroral dose of 2 mg/Kg; format: ADME, organism-based; settings: in vivo, po
[9] = target: T2, Peroxisome proliferator-activated receptor alpha (Homo sapiens, UniProt Q07869); assay: In vitro binding affinity against human Peroxisome proliferator activated receptor alpha
T2 sequence (Q07869 whole entry): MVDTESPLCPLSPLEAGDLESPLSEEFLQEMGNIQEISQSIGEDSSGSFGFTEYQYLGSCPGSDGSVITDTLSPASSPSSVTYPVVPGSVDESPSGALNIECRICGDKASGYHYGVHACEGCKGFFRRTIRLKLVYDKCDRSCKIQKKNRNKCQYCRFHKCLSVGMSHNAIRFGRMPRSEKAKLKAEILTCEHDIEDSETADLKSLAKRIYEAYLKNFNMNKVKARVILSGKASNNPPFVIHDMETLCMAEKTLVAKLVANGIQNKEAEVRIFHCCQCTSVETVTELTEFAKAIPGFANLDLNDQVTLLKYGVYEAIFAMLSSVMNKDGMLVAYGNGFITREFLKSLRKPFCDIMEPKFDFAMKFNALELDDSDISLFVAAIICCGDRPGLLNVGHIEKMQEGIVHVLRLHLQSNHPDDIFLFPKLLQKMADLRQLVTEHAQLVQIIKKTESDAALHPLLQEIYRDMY

[10] = Bioavailability in fasted male administration of 2 mg/Kg of compound p.o.; format: ADME, organism-based; settings: rat, in vivo, po
Rattus norvegicus [11] = assay: Dose-normalized AUC measured in fasted male Sprague dawely rats when the compound was administered at a peroral of 2 mg/Kg; format: ADME, organism-based; settings: in vivo, po

EC50 [1] [µM] | IC50 [2] [µM] | half-life [5] [h] | clearance [6] [L/h/kg] | nAUC (Rattus norvegicus [8]) [uMh] | Structure (SMILES) | Glucose correction (Mus musculus [3]) [%] | Triglyceride correction (Mus musculus [4]) [%] | further results
> 3 | 3.8 |  |  |  | CCCc1cc(Oc2ccc(O)cc2)ccc1OCCCOc1cccc(C2SC(=O)NC2=O)c1 (configuration not stated) |  |  | 
> 3 | > 10 |  |  |  | CCCc1cc(Oc2ccc(OC)cc2)ccc1OCCCOc1cccc(C2SC(=O)NC2=O)c1 (configuration not stated) |  |  | 
 |  | 1.5 | 0.57 | 21.78 | CCCc1cc(Oc2ccccc2)ccc1OCCCOc1cccc(C2SC(=O)NC2=O)c1 (configuration not stated) | 91 | 67 | bioavailability [10]: 62%
 | 0.19 |  |  |  | O=C1NC(=O)C(c2cccc(OCCCOc3ccc(Oc4ccccc4)cc3)c2)S1 (configuration not stated) |  |  | 
> 3 | > 50 | 2.2 | 0.474 | 0.8 | CCCc1cc(Oc2ccc(Cl)c(Cl)c2)ccc1OCCCOc1cccc(C2SC(=O)NC2=O)c1 (configuration not stated) | 79 | 77 | bioavailability [7]: 19%
> 3 | > 50 |  |  |  | CCCc1cc(Oc2ccc(Cl)c(C)c2)ccc1OCCCOc1cccc(C2SC(=O)NC2=O)c1 (configuration not stated) |  |  | 

Further lines, the compound ahead of its results:

Structure (SMILES) | EC50 [1] [µM] | IC50 [2] [µM] | half-life [5] [h] | clearance [6] [L/h/kg] | nAUC (Rattus norvegicus [8]) [uMh] | Glucose correction (Mus musculus [3]) [%] | Triglyceride correction (Mus musculus [4]) [%] | further results
CCCc1cc(Oc2ccc(F)cc2)ccc1OCCCOc1cccc(C2SC(=O)NC2=O)c1 (configuration not stated) | > 3 | > 5 | 1.3 | 0.612 | 3.3 | 90 | 76 | bioavailability [7]: 66%
CCCc1cc(Oc2ccccc2)ccc1OCCCOc1ccc(C2SC(=O)NC2=O)cc1 (configuration not stated) |  |  |  |  |  |  |  | IC50 [9]: > 50 µM
CCCc1cc(Oc2ccc(Cl)cc2)ccc1OCCCOc1cccc(C2SC(=O)NC2=O)c1 (configuration not stated) | > 3 | > 50 | 2.9 | 0.582 | 1.5 | 86 | 68 | bioavailability [7]: 44%
CCCc1cc(Oc2ccccc2)ccc1OCCCCOc1cccc(C2SC(=O)NC2=O)c1 (configuration not stated) |  | 3 |  |  |  |  |  | 
CCCc1cc(Oc2ccc(-c3ccccc3)cc2)ccc1OCCCOc1cccc(C2SC(=O)NC2=O)c1 (configuration not stated) | > 3 | > 50 |  |  |  |  |  | 
CCCc1cc(Oc2ccc(F)c(C)c2)ccc1OCCCOc1cccc(C2SC(=O)NC2=O)c1 (configuration not stated) | > 50 | > 50 | 3.3 | 0.63 | 0.6 | 78 | 69 | bioavailability [7]: 20%
CN(CCOc1ccc(CC2SC(=O)NC2=O)cc1)c1ccccn1 (configuration not stated) [ROSIGLITAZONE] |  |  |  |  | 16.4 | 67 | 74 | 
CCCc1cc(Oc2ccc(C3CCCC3)cc2)ccc1OCCCOc1cccc(C2SC(=O)NC2=O)c1 (configuration not stated) | > 3 | > 50 |  |  |  |  |  | 
CCCc1cc(Oc2ccc(C(C)(C)C)cc2)ccc1OCCCOc1cccc(C2SC(=O)NC2=O)c1 (configuration not stated) |  | > 50 |  |  |  |  |  | 
CCCc1cc(Oc2ccc(CC(C)C)cc2)ccc1OCCCOc1cccc(C2SC(=O)NC2=O)c1 (configuration not stated) |  | > 50 |  |  |  |  |  | 
CCCc1cc(Oc2ccc(C(C)C)cc2)ccc1OCCCOc1cccc(C2SC(=O)NC2=O)c1 (configuration not stated) | > 3 | > 50 | 3.3 | 0.366 |  |  |  | nAUC (Rattus norvegicus [11]): 0.3 uMh; bioavailability [7]: 6%
